Legend:
photosystem II = assay: PSII oxygen evolution / electron transfer activity of treated Crofton weed leaves; type: biochemical; details: 50 μg/mL, strong light 12 hours
Outline: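 Cleaned Crofton weed leaves had 50 μg/mL compound (methanol diluted in water) applied to the underside, with matching methanol–water control. Vacuum 15 min at 25° C, then 12 h strong light (400 μM m^−2 s^−1) before measuring Hill reaction, electron transfer and chlorophyll fluorescence; four leaves per treatment, tested three times.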

Cyperus rotundus = assay: Leaf piece damage test; type: in vivo; design: key: 4: The leaf completely dead; 3: Two third of the leaf withered; 2: One half of the leaf withered; 1: Only edge of the leaf withered; 0: Not damage at all; details: 50 μg/mL, 4 days
Procedure: (§1) Compounds 7, 14, 15, 16, 40, 45, 48 and 53 were dissolved individually in small amount of methanol, and diluted with distilled water to concentration of 50 μg/mL. Methanol water solution and pure water were used as control. A piece of 5 mm leaf was taken from the second leaf of weed sample and was treated with the solution three times. 5 pieces of the leaf were prepared for each treatment. The damage data were collected 4 days later. The measurement of damage level is described in the Table 9.
(§2) The measurement of the plant damage was calculated by the formula: Damage Index=Σ(damage level×number of plants)×100/4/number of plants in each treatment.

Eclipta prostrata = assay: Leaf piece damage test; type: in vivo; design: key: 4: The leaf completely dead; 3: Two third of the leaf withered; 2: One half of the leaf withered; 1: Only edge of the leaf withered; 0: Not damage at all; details: 50 μg/mL, 4 days
Procedure: as §1, §2

Erigeron annuus = assay: Leaf piece damage test; type: in vivo; design: key: 4: The leaf completely dead; 3: Two third of the leaf withered; 2: One half of the leaf withered; 1: Only edge of the leaf withered; 0: Not damage at all; details: 50 μg/mL, 4 days
Procedure: as §1, §2

Eupatorium adenophorum = assay: Leaf piece damage test; type: in vivo; design: key: 4: The leaf completely dead; 3: Two third of the leaf withered; 2: One half of the leaf withered; 1: Only edge of the leaf withered; 0: Not damage at all; details: 50 μg/mL, 4 days
Procedure: as §1, §2

Fimbristylis miliacea = assay: Leaf piece damage test; type: in vivo; design: key: 4: The leaf completely dead; 3: Two third of the leaf withered; 2: One half of the leaf withered; 1: Only edge of the leaf withered; 0: Not damage at all; details: 50 μg/mL, 4 days
Procedure: as §1, §2

Keng stiffgrass = assay: Leaf piece damage test; type: in vivo; design: key: 4: The leaf completely dead; 3: Two third of the leaf withered; 2: One half of the leaf withered; 1: Only edge of the leaf withered; 0: Not damage at all; details: 50 μg/mL, 4 days
Procedure: as §1, §2

Lamium amplexicaule = assay: Leaf piece damage test; type: in vivo; design: key: 4: The leaf completely dead; 3: Two third of the leaf withered; 2: One half of the leaf withered; 1: Only edge of the leaf withered; 0: Not damage at all; details: 50 μg/mL, 4 days
Procedure: as §1, §2

Lapsana apogonoides = assay: Leaf piece damage test; type: in vivo; design: key: 4: The leaf completely dead; 3: Two third of the leaf withered; 2: One half of the leaf withered; 1: Only edge of the leaf withered; 0: Not damage at all; details: 50 μg/mL, 4 days
Procedure: as §1, §2

Mosla scabra = assay: Leaf piece damage test; type: in vivo; design: key: 4: The leaf completely dead; 3: Two third of the leaf withered; 2: One half of the leaf withered; 1: Only edge of the leaf withered; 0: Not damage at all; details: 50 μg/mL, 4 days
Procedure: as §1, §2

[1] = tested on: Parthenocissus tricuspidata; assay: Leaf piece damage test; type: in vivo; design: key: 4: The leaf completely dead; 3: Two third of the leaf withered; 2: One half of the leaf withered; 1: Only edge of the leaf withered; 0: Not damage at all; details: 50 μg/mL, 4 days
Procedure: as §1, §2

[2] = tested on: Pigweed (Amaranthus spinosus); assay: Leaf piece damage test; type: in vivo; design: key: 4: The leaf completely dead; 3: Two third of the leaf withered; 2: One half of the leaf withered; 1: Only edge of the leaf withered; 0: Not damage at all; details: 50 μg/mL, 4 days
Procedure: as §1, §2

Plantago asiatica = assay: Leaf piece damage test; type: in vivo; design: key: 4: The leaf completely dead; 3: Two third of the leaf withered; 2: One half of the leaf withered; 1: Only edge of the leaf withered; 0: Not damage at all; details: 50 μg/mL, 4 days
Procedure: as §1, §2

Rumex dentatus = assay: Leaf piece damage test; type: in vivo; design: key: 4: The leaf completely dead; 3: Two third of the leaf withered; 2: One half of the leaf withered; 1: Only edge of the leaf withered; 0: Not damage at all; details: 50 μg/mL, 4 days
Procedure: as §1, §2

Sonchus asper = assay: Leaf piece damage test; type: in vivo; design: key: 4: The leaf completely dead; 3: Two third of the leaf withered; 2: One half of the leaf withered; 1: Only edge of the leaf withered; 0: Not damage at all; details: 50 μg/mL, 4 days
Procedure: as §1, §2

Sonchus oleraceus = assay: Leaf piece damage test; type: in vivo; design: key: 4: The leaf completely dead; 3: Two third of the leaf withered; 2: One half of the leaf withered; 1: Only edge of the leaf withered; 0: Not damage at all; details: 50 μg/mL, 4 days
Procedure: as §1, §2

Trifolium pretense = assay: Leaf piece damage test; type: in vivo; design: key: 4: The leaf completely dead; 3: Two third of the leaf withered; 2: One half of the leaf withered; 1: Only edge of the leaf withered; 0: Not damage at all; details: 50 μg/mL, 4 days
Procedure: as §1, §2

Veronica didyma = assay: Leaf piece damage test; type: in vivo; design: key: 4: The leaf completely dead; 3: Two third of the leaf withered; 2: One half of the leaf withered; 1: Only edge of the leaf withered; 0: Not damage at all; details: 50 μg/mL, 4 days
Procedure: as §1, §2

Wild oats = assay: Leaf piece damage test; type: in vivo; design: key: 4: The leaf completely dead; 3: Two third of the leaf withered; 2: One half of the leaf withered; 1: Only edge of the leaf withered; 0: Not damage at all; details: 50 μg/mL, 4 days
Procedure: as §1, §2

Xanthium sibiricum = assay: Leaf piece damage test; type: in vivo; design: key: 4: The leaf completely dead; 3: Two third of the leaf withered; 2: One half of the leaf withered; 1: Only edge of the leaf withered; 0: Not damage at all; details: 50 μg/mL, 4 days
Procedure: as §1, §2

| Structure (SMILES) | PSII Activity of oxygen evolution (photosystem II) [uMO2/mgChlh] | Damage level (Cyperus rotundus) | Damage level (Eclipta prostrata) | Damage level (Erigeron annuus) | Damage level (Eupatorium adenophorum) | Damage level (Fimbristylis miliacea) | Damage level (Keng stiffgrass) | Damage level (Lamium amplexicaule) | Damage level (Lapsana apogonoides) | Damage level (Mosla scabra) | Damage level [1] | Damage level [2] | Damage level (Plantago asiatica) | Damage level (Rumex dentatus) | Damage level (Sonchus asper) | Damage level (Sonchus oleraceus) | Damage level (Trifolium pretense) | Damage level (Veronica didyma) | Damage level (Wild oats) | Damage level (Xanthium sibiricum) |
| --- | --- | --- | --- | --- | --- | --- | --- | --- | --- | --- | --- | --- | --- | --- | --- | --- | --- | --- | --- | --- |
| CCCCC1NC(=O)C(C(C)=O)=C1O (stereo not shown) [Compound 14] | 34.01 | 2 | 3 | 3 | 3 | 2 | 3 | 2 | 3 | 2 | 2 | 2 | 2 | 2 | 3 | 3 | 3 | 3 | 3 | 2 |
| CCCCCC1NC(=O)C(C(C)=O)=C1O (stereo not shown) [Compound 15] | 31.26 | 2 | 4 | 4 | 4 | 2 | 3 | 3 | 2 | 2 | 3 | 2 | 3 | 2 | 3 | 3 | 3 | 2 | 3 | 2 |
| CCCCCCC1NC(=O)C(C(C)=O)=C1O (stereo not shown) [Compound 16] | 30.00 | 2 | 3 | 3 | 4 | 3 | 3 | 2 | 3 | 2 | 2 | 2 | 2 | 2 | 3 | 3 | 3 | 2 | 3 | 2 |
| CCCC(Cl)C1NC(=O)C(C(C)=O)=C1O (stereo not shown) [Compound 40] | 24.00 | 2 | 3 | 3 | 4 | 3 | 3 | 3 | 3 | 2 | 2 | 2 | 3 | 2 | 3 | 3 | 3 | 2 | 3 | 2 |
| CCC(C)C1NC(=O)C(C(=O)CCF)=C1O (stereo not shown) [Compound 44] | 40.75 | 2 | 4 | 4 | 4 | 2 | 3 | 3 | 3 | 2 | 3 | 3 | 3 | 3 | 3 | 3 | 4 | 3 | 3 | 2 |
| CCC(C)C1NC(=O)C(C(=O)CCc2cc(Cl)cc(Cl)c2)=C1O (stereo not shown) [Compound 48] | – | 2 | 4 | 4 | 4 | 3 | 4 | 2 | 4 | 2 | 3 | 3 | 2 | 3 | 4 | 4 | 4 | 3 | 3 | 3 |
| CCCC(C#N)C1NC(=O)C(=C(C)O)C1=O (stereo not shown) [Compound 53] | 32.12 | 2 | 4 | 3 | 4 | 2 | 4 | 2 | 3 | 2 | 3 | 3 | 2 | 2 | 3 | 4 | 4 | 3 | 3 | 3 |
